Data taken from patent US12528805B2, “Solid forms of emetine” (Acer Therapeutics, Inc., priority 2020, dated 2026).
Where a name gives a salt, the structure may show the parent alone.

What was measured:
[1] = Solubility screening by solvent addition technique (approximate solubility); format: physicochemical; conditions: thermodynamic from solid; water; at ambient temperature; small, fine particles remained (Experiment 25)
[2] = Solid form stability on storage (XRPD re-analysis); format: physicochemical
Description: The solids were dried under vacuum at ambient temperature (about 23° C.) for 17 h. The solids on the XRPD plate were stored at 40° C./75% RH for 22 h then re-analyzed. Amorphous and a mixture of Compound I dihydrochloride Form 2 and Form 6 were obtained (Table 7).
The solids were isolated by filtration after a total of 27.5 h at 5° C. and washed with 0.6 mL of cold acetone or 3×0.6 mL of cold heptane. The solids were dried under vacuum at ambient temperature (about 23° C.) for 17 h. The solids on the XRPD plate were stored at 40° C./75% RH for 22 h then re-analyzed by XRPD. Results, which are summarized in Table 8, show mixtures of Compound I dihydrochloride Forms 5 and 6, 5, 2 and 1, and 2 were obtained.
1.0 mL of water was added to approximately 300 mg of Compound I dihydrochloride Form 1. The resulting mixture was magnetically stirred at 50° C. over about 15 min, then stirred at 50° C. for 0.25 h. The solution was polish filtered (0.45 μm PTFE filter) into a 2 mL push-cap vial and then stirred at 50° C. for 0.25 h, prior to cooling to 5° C. at 0.1° C./min. After 62 h at 5° C., the experiment was sub-sampled and the solid was analyzed by XRPD. The material on the XRPD plate was dried under vacuum at 35° C. under a stream of wet nitrogen (20-38% RH) for about 9 h and then re-analyzed by XRPD. The material on the XRPD plate was stored at 25° C./60% RH for 22 h and then re-analyzed by XRPD. After a total of 87 h at 5° C., solids were isolated by centrifugation (0.22 μm nylon filter) and analyzed by XRPD. The solids were air-dried at ambient temperature (about 22° C.) for 24 h.
Small-scale crystallization Experiment 7 was sub-sampled prior to ASA and after ASA was complete, with solids isolated by centrifugation (0.22 μm nylon filter) and analyzed by XRPD.
Approximately 10 g of Compound I dihydrochloride Form 1 was dissolved in 67 mL of ethanol:water 99:1 v/v at about 60° C. (initial concentration: 150 mg/mL). Polish filtration was carried out (0.2 μm PTFE filter). The solution was transferred to a 250 mL vessel at 60° C. and stirred at 50° C. (solution temperature) and 300 rpm for about 5 min. The solution was seeded with about 100 mg (1 wt. %) of Compound I dihydrochloride Form 2, isolated from small-scale crystallization Experiments 12 and 13, from example 4 above. The seed dissolved rapidly. Anti-solvent addition of 10 mL of heptane (1 volume) was carried out at 2 vol/h (Heptane content of 13%). The solution was re-seeded with a further 100 mg (1 wt. %) of Form 2, isolated from small-scale crystallization Experiment 12. The seed persisted and a slurry formed. The slurry was stirred at 50° C. for 1 h and then anti-solvent addition of 131 mL of heptane at 1.5 vol/h was carried out, to reach 60% heptane. […] An additional 2 volumes of ethanol:water 99:1 v/v was added at the beginning of the ASA to mobilize the slurry. Once ASA was complete, the slurry was cooled to 5° C. at 0.1° C./min. The experiment was sub-sampled after about 2 h at 5° C. The slurry was thick but mixing. After 3.5 h at 5° C., an additional 3.6 mL of water was added to increase the water content to 2% (ethanol:water:heptane ratio of 39:2:59 v/v/v). The experiment was sub-sampled again after 2 h at 5° C. with additional water. After a total of 10 h at 5° C., solids were isolated by filtration and washed with 2 volumes of cold (5° C.) ethanol:heptane 40:60 v/v. The solids were filtered and dried under vacuum at ambient temperature (about 21° C.) for 14.5 h, then analyzed by XRPD.

[3] = Dynamic vapor sorption (DVS); conditions: for DVS uptake: 25° C.
[4] = stored at 40° C./75% RH for 22 h

For CC[C@H]1CN2CCc3cc(OC)c(OC)cc3[C@@H]2C[C@@H]1C[C@H]1NCCc2cc(OC)c(OC)cc21 [Compound I dihydrochloride Form 1, (2S,3R,11bS)-2-(((R)-6,7-dimethoxy-1,2,3,4-tetrahydroisoquinolin-1-yl)methyl)-3-ethyl-9,10-dimethoxy-1,3,4,6,7,11b-hexahydro-2H-pyrido[2,1-a]isoquinoline dihydrochloride], the solubility [1] was greater than 200 mg/mL.

In the case of CC[C@H]1CN2CCc3cc(OC)c(OC)cc3[C@@H]2C[C@@H]1C[C@H]1NCCc2cc(OC)c(OC)cc21 [Compound I dihydrochloride Form 2, (2S,3R,11bS)-2-(((R)-6,7-dimethoxy-1,2,3,4-tetrahydroisoquinolin-1-yl)methyl)-3-ethyl-9,10-dimethoxy-1,3,4,6,7,11b-hexahydro-2H-pyrido[2,1-a]isoquinoline dihydrochloride], the “Solid form by XRPD after storage” value ([2]; stored at 40° C./75% RH for 22 h, dihydrochloride) is reported as “maintained”.

In the case of CC[C@H]1CN2CCc3cc(OC)c(OC)cc3[C@@H]2C[C@@H]1C[C@H]1NCCc2cc(OC)c(OC)cc21 [Compound I dihydrochloride Form 6, (2S,3R,11bS)-2-(((R)-6,7-dimethoxy-1,2,3,4-tetrahydroisoquinolin-1-yl)methyl)-3-ethyl-9,10-dimethoxy-1,3,4,6,7,11b-hexahydro-2H-pyrido[2,1-a]isoquinoline dihydrochloride], the “Solid form by XRPD after storage” value ([2]; storage at ambient conditions) is reported as “maintained” and the “Solid form by XRPD after storage” value ([2]; stored at 25° C./60% RH for 22 h) is reported as “maintained”.

For CC[C@H]1CN2CCc3cc(OC)c(OC)cc3[C@@H]2C[C@@H]1C[C@H]1NCCc2cc(OC)c(OC)cc21 [Compound I dihydrochloride Form 7B, (2S,3R,11bS)-2-(((R)-6,7-dimethoxy-1,2,3,4-tetrahydroisoquinolin-1-yl)methyl)-3-ethyl-9,10-dimethoxy-1,3,4,6,7,11b-hexahydro-2H-pyrido[2,1-a]isoquinoline dihydrochloride], the DVS uptake ([3]; between 20-70% RH, cycle 2 sorption, material of large-scale Experiment 4 dried under vacuum at about 20° C. for 17.5 h) was 8.7%, the DVS uptake ([3]; between 40-80% RH, cycle 1 sorption) was “about 3%” and the DVS uptake ([3]; between 80-90% RH, cycle 1 sorption) was “large uptake”. For the same compound, the “Relative humidity of deliquescence” value ([3]; post-DVS XRPD: amorphous material was recovered) was “about 90 % RH”.

In the case of CC[C@H]1CN2CCc3cc(OC)c(OC)cc3[C@@H]2C[C@@H]1C[C@H]1NCCc2cc(OC)c(OC)cc21 [Compound I dihydrochloride Form 8, (2S,3R,11bS)-2-(((R)-6,7-dimethoxy-1,2,3,4-tetrahydroisoquinolin-1-yl)methyl)-3-ethyl-9,10-dimethoxy-1,3,4,6,7,11b-hexahydro-2H-pyrido[2,1-a]isoquinoline dihydrochloride], the “Solid form by XRPD after storage” value ([2]; 1 h under ambient conditions) is reported as “converted to Compound I dihydrochloride Form 2” and the “Solid form by XRPD after storage” value ([2]; 3 h under ambient conditions) is reported as “converted to Form 2”.

For CC[C@H]1CN2CCc3cc(OC)c(OC)cc3[C@@H]2C[C@@H]1C[C@H]1NCCc2cc(OC)c(OC)cc21 [Form 2 with a trace Form 1], the “Solid form by XRPD after storage” value [2, 4] was “Compound I dihydrochloride Form 2 was obtained”.

In the case of CC[C@H]1CN2CCc3cc(OC)c(OC)cc3[C@@H]2C[C@@H]1C[C@H]1NCCc2cc(OC)c(OC)cc21 [mixture of Form 5 and Form 6], the “Solid form by XRPD after storage” value ([2]; storage at 5° C. for about 2 weeks) is reported as “Conversion to Form 5” and the “Solid form by XRPD after storage” value [2, 4] is reported as “conversion back to Compound I dihydrochloride Form 5”.
